These results are taken from paper PMC5142810, “Structure of protein O-mannose kinase reveals a unique active site architecture” (eLife, 2016).

Experiment [1] deals with T1, HsPOMK (Homo sapiens, UniProt Q9H5K3).
T1 construct: gene POMK; lumenal kinase domain, residues 49-350, 6xHis-MBP fusion kept, secreted from Hi5 insect cells (baculovirus)
As to the kind of experiment: radiometric kinase assay, […] incorporation, C18 cartridge. The settings on record: 20 μM GGM-MU, 100 μM ATP, 10 mM MnCl2, 50 mM HEPES pH 7.5, 20 °C, 30 min. The experiment is classed as biochemical.

In experiment [2] the target is T2, CoPOMK (Capsaspora owczarzaki, UniProt A0A0D2WXW5).
T2 construct: gene CAOG_008172; residues 112-610, 6xHis-MBP fusion (psMBP2), secreted from Hi5 insect cells (baculovirus)
T2 sequence (A0A0D2WXW5 112-610): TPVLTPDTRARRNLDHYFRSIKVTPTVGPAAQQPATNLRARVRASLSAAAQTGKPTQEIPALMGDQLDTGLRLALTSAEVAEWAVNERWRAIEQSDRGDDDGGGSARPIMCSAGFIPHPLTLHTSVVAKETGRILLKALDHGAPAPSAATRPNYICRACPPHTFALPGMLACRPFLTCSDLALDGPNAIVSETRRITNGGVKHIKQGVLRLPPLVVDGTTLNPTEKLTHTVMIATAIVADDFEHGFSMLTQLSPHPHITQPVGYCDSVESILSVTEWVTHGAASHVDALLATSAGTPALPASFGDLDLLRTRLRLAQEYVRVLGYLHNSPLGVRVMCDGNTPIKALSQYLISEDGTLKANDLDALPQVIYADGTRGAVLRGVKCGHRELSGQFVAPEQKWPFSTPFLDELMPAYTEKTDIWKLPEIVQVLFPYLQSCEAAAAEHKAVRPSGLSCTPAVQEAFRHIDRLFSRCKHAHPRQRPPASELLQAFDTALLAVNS
Described as above. The experiment is classed as biochemical. To be noted: 20 μM GGM-MU, 100 μM ATP, 10 mM MnCl2, 50 mM HEPES pH 7.5, 20 °C, 30 min.

Experiment [3] addresses T3, DrPOMK (Danio rerio, UniProt Q5U3W1).
T3 construct: gene pomk; lumenal kinase domain, residues 49-347, secreted from Hi5 insect cells (baculovirus); N-terminal 6xHis-MBP removed by TEV for crystallization
As to the kind of experiment: 1H NMR titration, Man H1 peak intensity. In kind it is binding. The settings on record: read-out: dissociation constant.

T3 sequence (Q5U3W1 49-347): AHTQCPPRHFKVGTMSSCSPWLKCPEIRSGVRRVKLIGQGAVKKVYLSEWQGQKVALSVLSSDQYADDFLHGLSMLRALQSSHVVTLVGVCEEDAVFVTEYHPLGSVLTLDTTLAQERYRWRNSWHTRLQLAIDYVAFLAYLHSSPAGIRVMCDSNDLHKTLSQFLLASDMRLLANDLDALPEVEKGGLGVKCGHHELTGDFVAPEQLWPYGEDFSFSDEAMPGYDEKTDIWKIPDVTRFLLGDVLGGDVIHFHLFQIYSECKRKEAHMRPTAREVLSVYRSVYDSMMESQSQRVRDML
T1 sequence (Q9H5K3 49-350): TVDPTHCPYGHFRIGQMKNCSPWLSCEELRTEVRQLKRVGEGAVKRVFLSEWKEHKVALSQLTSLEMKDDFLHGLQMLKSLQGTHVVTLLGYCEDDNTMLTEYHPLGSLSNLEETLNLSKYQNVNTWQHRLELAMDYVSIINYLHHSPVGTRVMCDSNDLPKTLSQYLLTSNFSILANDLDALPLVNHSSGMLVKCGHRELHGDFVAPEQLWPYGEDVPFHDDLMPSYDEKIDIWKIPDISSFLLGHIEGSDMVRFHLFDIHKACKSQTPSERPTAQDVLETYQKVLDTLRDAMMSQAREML

Regarding `CC(=O)N[C@H]1[C@H](O[C@H]2[C@H](O)[C@@H](CO)O[C@@H](O[C@H]3[C@H](O)[C@H](O)[C@@H](Oc4ccc5c(C)cc(=O)oc5c4)O[C@@H]3CO)[C@@H]2NC(C)=O)O[C@H](CO)[C@H](O)[C@@H]1O` [GGM-MU], the “radiometric kinase assay, 32P incorporation, C18 cartridge” value in experiment [1] and in experiment [2] was “POMK homologues phosphorylates GGM-MU” throughout. In addition, in experiment [3], the Kd was 30.2 µM.
